Laboratory results published in DBAASP.
≈ marks a conversion by molar mass, not a printed value.

Assays:
Assay in all cases: ≥ marks a high value that may be exact or a test limit, other limits are often not marked, values filed in µg/mL are converted to µM
[1] = tested on: Candida albicans F7-39/IDE99
Escherichia coli B = tested on: Escherichia coli B
Pseudomonas aeruginosa = tested on: Pseudomonas aeruginosa
Bacillus subtilis 168 = tested on: Bacillus subtilis 168
[2] = tested on: Micrococcus luteus CCM 144
Staphylococcus aureus = tested on: Staphylococcus aureus
[3] = tested on: Staphylococcus aureus USA 300
Escherichia coli K-12 = tested on: Escherichia coli K-12
Bacillus megaterium Bm11 = tested on: Bacillus megaterium Bm11
Staphylococcus capitis 1 = tested on: Staphylococcus capitis 1
[4] = tested on: Yersinia pseudotuberculosis YPIII
[5] = tested on: Staphylococcus aureus Cowan 1
[6] = tested on: Escherichia coli ATCC 25922
[7] = tested on: Candida albicans ATCC 10231
[8] = tested on: Pseudomonas aeruginosa PAO1
[9] = tested on: Staphylococcus aureus ATCC 25923
[10] = tested on: Salmonella enterica subsp. enterica serovar Typhi
Bacillus subtilis = tested on: Bacillus subtilis
[11] = tested on: Pseudomonas aeruginosa ATCC 27853
Enterobacter cloacae = tested on: Enterobacter cloacae
Escherichia coli = tested on: Escherichia coli
[12] = tested on: Candida albicans ATCC 90028
[13] = tested on: Bacillus anthracis Sterne 34F2
[14] = tested on: Bacillus subtilis ATCC 9372
[15] = tested on: Burkholderia thailandensis
[16] = tested on: Staphylococcus aureus ATCC 43300
[17] = tested on: Bacillus subtilis ATCC 6633
[18] = tested on: Escherichia coli ATCC 8739
[19] = tested on: Staphylococcus aureus ATCC 6538
Streptococcus mutans = tested on: Streptococcus mutans
[20] = tested on: Salmonella enterica subsp. enterica serovar Enteritidis
Listeria innocua = tested on: Listeria innocua
Micrococcus luteus A270 = tested on: Micrococcus luteus A270

**Q.** With `CC(C)C[C@H](NC(=O)CNC(=O)[C@H](C)NC(=O)CNC(=O)[C@H](Cc1c[nH]c2ccccc12)NC(=O)[C@H](CC(N)=O)NC(=O)[C@@H](N)CC(C)C)C(=O)N[C@@H](CCCCN)C(=O)N[C@@H](Cc1cnc[nH]1)C(=O)NCC(=O)NCC(=O)N[C@@H](CCCCN)C(N)=O` [LNWGAGLKHGGK] as the compound, how does the MIC [1] read?
**A.** Its MIC is no less than 100 µM.

**Q.** And the MIC (Escherichia coli B)?
**A.** Its MIC is no less than 100 µM.

**Q.** And the MIC (Pseudomonas aeruginosa)?
**A.** The MIC was greater than 100 µM.

**Q.** And the MIC (Bacillus subtilis 168)?
**A.** Its MIC is no less than 100 µM.

**Q.** What about the MIC [2] of the same compound?
**A.** Its MIC is no less than 100 µM.

**Q.** What about the MIC (Staphylococcus aureus) of the same compound?
**A.** Its MIC is greater than 100 µM.

**Q.** Which MIC [3] does the source give for `CC[C@H](C)[C@H](NC(=O)[C@H](CCCN=C(N)N)NC(=O)[C@H](CCC(N)=O)NC(=O)[C@@H](NC(=O)[C@@H](NC(=O)[C@H](CCCN=C(N)N)NC(=O)[C@H](CCCCN)NC(=O)[C@H](Cc1ccccc1)NC(=O)[C@H](CCC(=O)O)NC(=O)CN)[C@@H](C)CC)C(C)C)C(=O)N[C@@H](CCCCN)C(=O)N[C@@H](CC(=O)O)C(=O)N[C@@H](Cc1ccccc1)C(=O)N[C@@H](CC(C)C)C(=O)N[C@@H](CCCN=C(N)N)C(=O)N[C@@H](CC(N)=O)C(=O)N[C@@H](CC(C)C)C(=O)N[C@H](C(N)=O)C(C)C` [GEFKRIVQRIKDFLRNLV] here?
**A.** Its MIC is no less than 60 µM.

**Q.** What about the MIC (Escherichia coli K-12) of the same compound?
**A.** The MIC was no less than 60 µM.

**Q.** Which results are given for `CC[C@H](C)[C@H](NC(=O)CNC(=O)[C@H](C)NC(=O)[C@H](CC(C)C)NC(=O)[C@@H](NC(=O)[C@H](CCCN=C(N)N)NC(=O)CNC(=O)[C@@H](NC(=O)[C@H](CC(C)C)NC(=O)[C@@H]1CCCN1C(=O)[C@H](CC(C)C)NC(=O)[C@@H](N)Cc1ccccc1)[C@@H](C)CC)C(C)C)C(=O)N[C@@H](CC(C)C)C(N)=O` [FLPLIGRVLAGIL]?
**A.** MIC (Bacillus megaterium Bm11): 2.5 µM (≈ 3.45 µg/mL); MIC (Staphylococcus capitis 1): 5 µM (≈ 6.9 µg/mL); MIC [4]: 20 µM (≈ 27.6 µg/mL); MIC [5]: 2.5 µM (≈ 3.45 µg/mL); MIC [6]: > 40 µM; MIC [7]: 2.5 µM (≈ 3.45 µg/mL)

**Q.** Which MIC [8] does the source give for `CC(C)C[C@H](NC(=O)[C@H](CC(C)C)NC(=O)[C@H](CCCCN)NC(=O)CNC(=O)[C@H](CC(C)C)NC(=O)[C@H](CC(C)C)NC(=O)[C@H](CO)NC(=O)[C@H](CC(C)C)NC(=O)[C@H](CC(C)C)NC(=O)[C@@H]1CCCN1C(=O)[C@H](CC(C)C)NC(=O)[C@H](CC(C)C)NC(=O)CN)C(N)=O` [GLLPLLSLLGKLL] here?
**A.** Its MIC is greater than 100 µM.

**Q.** And the MIC [3]?
**A.** Its MIC is 1.56 µM (≈ 2.1 µg/mL).

**Q.** And the MIC (Escherichia coli K-12)?
**A.** The MIC was 25 µM (≈ 33.7 µg/mL).

**Q.** And the MIC (Bacillus subtilis 168)?
**A.** Its MIC is 3.12 µM (≈ 4.21 µg/mL).

**Q.** How did the MIC [9] turn out when `CC(C)C[C@H](NC(=O)[C@H](CCCCN)NC(=O)[C@H](CCCN=C(N)N)NC(=O)[C@H](Cc1ccccc1)NC(=O)[C@H](Cc1ccccc1)NC(=O)[C@H](CCCCN)NC(=O)[C@H](CCCCN)NC(=O)[C@H](Cc1ccccc1)NC(=O)[C@H](CCCN=C(N)N)NC(=O)[C@H](CCCCN)NC(=O)[C@@H](NC(=O)[C@H](CC(C)C)NC(=O)[C@@H](N)CCCCN)C(C)C)C(=O)N[C@@H](CCCCN)C(=O)N[C@@H](CCCCN)C(=O)N[C@@H](CO)C(N)=O` [KLVKRFKKFFRKLKKS] was run?
**A.** The MIC was 0.961 µM (≈ 2 µg/mL).

**Q.** And the MIC [10]?
**A.** The MIC was 3.84 µM (≈ 8 µg/mL).

**Q.** And the MIC (Bacillus subtilis)?
**A.** Its MIC is no less than 61.5 µM.

**Q.** And the MIC (Pseudomonas aeruginosa)?
**A.** The MIC was 7.69 µM (≈ 16 µg/mL).

**Q.** What about the MIC [11] of the same compound?
**A.** The MIC was 61.5 µM (≈ 128 µg/mL).

**Q.** And the MIC [6]?
**A.** The MIC was 30.7 µM (≈ 64 µg/mL).

**Q.** What about the MIC (Enterobacter cloacae) of the same compound?
**A.** The MIC was no less than 123 µM.

**Q.** And the MIC (Escherichia coli)?
**A.** The MIC was 15.4 µM (≈ 32 µg/mL).

**Q.** And the MIC (Staphylococcus aureus)?
**A.** Its MIC is 61.5 µM (≈ 128 µg/mL).

**Q.** And the MIC [12]?
**A.** Its MIC is 30.7 µM (≈ 64 µg/mL).

**Q.** Which MIC [13] does the source give for `CC(C)C[C@H](NC(=O)[C@H](CCC(=O)O)NC(=O)[C@@H](NC(=O)[C@H](CC(=O)O)NC(=O)[C@H](CCCCN)NC(=O)[C@H](CC(N)=O)NC(=O)[C@H](C)NC(=O)[C@H](CCCCN)NC(=O)[C@H](CCCCN)NC(=O)CNC(=O)[C@H](CCCCN)NC(=O)[C@@H](N)CO)C(C)C)C(=O)N[C@@H](C)C(=O)N[C@@H](CCCN=C(N)N)C(=O)NCC(=O)O` [SKGKKANKDVELARG] here?
**A.** The MIC was no less than 100 µM.

**Q.** What about the MIC [14] of the same compound?
**A.** Its MIC is no less than 100 µM.

**Q.** What about the MIC [15] of the same compound?
**A.** Its MIC is no less than 50 µM.

**Q.** For `CC[C@H](C)[C@H](NC(=O)CN)C(=O)N[C@@H](Cc1ccccc1)C(=O)N[C@@H](CO)C(=O)N[C@H](C(=O)N[C@H](C(=O)N[C@@H](Cc1ccccc1)C(=O)N[C@@H](CCCCN)C(=O)N[C@@H](C)C(=O)NCC(=O)N[C@@H](CCCCN)C(=O)NCC(=O)N[C@H](C(=O)N[C@H](C(=O)N[C@H]1CSSC[C@@H](C(=O)O)NC(=O)[C@H](CC(C)C)NC(=O)CNC(=O)[C@H]([C@@H](C)O)NC(=O)[C@H](CC(C)C)NC(=O)CNC1=O)C(C)C)[C@@H](C)CC)C(C)C)[C@@H](C)O` [GIFSTVFKAGKGIVCGLTGLC], which MIC [16] is on record?
**A.** Its MIC is 12.5 µM (≈ 25.9 µg/mL).

**Q.** And the MIC [17]?
**A.** Its MIC is 12.5 µM (≈ 25.9 µg/mL).

**Q.** What about the MIC [18] of the same compound?
**A.** Its MIC is 25 µM (≈ 51.7 µg/mL).

**Q.** And the MIC [19]?
**A.** The MIC was 3.1 µM (≈ 6.42 µg/mL).

**Q.** What about the MIC [12] of the same compound?
**A.** Its MIC is no less than 50 µM.

**Q.** What does the source list for `CC(=O)N[C@@H](C)C(=O)N[C@@H](CCC(=O)O)C(=O)N[C@@H](CCCN=C(N)N)C(=O)N[C@H](C(=O)NCC(=O)N[C@@H](C)C(=O)NCC(=O)N[C@@H](C)C(=O)N1CCC[C@H]1C(=O)N[C@H](C(=O)N[C@@H](Cc1ccc(O)cc1)C(=O)N[C@@H](CC(C)C)C(N)=O)C(C)C)C(C)C` [AERVGAGAPVYL]?
**A.** MIC [13]: ≥ 100 µM; MIC [14]: ≥ 100 µM; MIC [15]: ≥ 50 µM

**Q.** With `CC[C@H](C)[C@H](NC(=O)[C@H](C)NC(=O)CNC(=O)[C@H](Cc1c[nH]c2ccccc12)NC(=O)[C@H](CC(N)=O)NC(=O)[C@@H](N)CC(C)C)C(=O)N[C@@H](CC(C)C)C(=O)N[C@@H](CCCCN)C(=O)N[C@@H](Cc1cnc[nH]1)C(=O)N[C@H](C(=O)N[C@@H](CCCCN)C(=O)N[C@@H](CCCCN)C(N)=O)[C@@H](C)CC` [LNWGAILKHIKK] as the compound, how does the MIC [1] read?
**A.** Its MIC is 11.3 µM (≈ 16 µg/mL).

**Q.** What about the MIC (Escherichia coli B) of the same compound?
**A.** The MIC was no less than 70 µM.

**Q.** And the MIC (Pseudomonas aeruginosa)?
**A.** Its MIC is 93.3 µM (≈ 132 µg/mL).

**Q.** What about the MIC (Bacillus subtilis 168) of the same compound?
**A.** The MIC was 13.3 µM (≈ 18.9 µg/mL).

**Q.** And the MIC [2]?
**A.** The MIC was 10.8 µM (≈ 15.3 µg/mL).

**Q.** And the MIC (Staphylococcus aureus)?
**A.** Its MIC is 100 µM (≈ 142 µg/mL).

**Q.** For `CC[C@H](C)[C@H](NC(=O)[C@H](CCC(N)=O)NC(=O)[C@H](CCCCN)NC(=O)[C@@H](NC(=O)[C@H](CCC(=O)O)NC(=O)[C@H](CCC(N)=O)NC(=O)[C@H](CC(C)C)NC(=O)[C@@H](NC(=O)[C@@H](N)CCCN=C(N)N)C(C)C)[C@@H](C)CC)C(=O)N[C@@H](CC(C)C)C(=O)N[C@@H](CCCCN)C(=O)O` [RVLQEIKQILK], which MIC (Streptococcus mutans) is on record?
**A.** Its MIC is no less than 183 µM.

**Q.** For `NCCCC[C@H](NC(=O)[C@H](Cc1c[nH]c2ccccc12)NC(=O)[C@H](Cc1c[nH]c2ccccc12)NC(=O)[C@H](Cc1c[nH]c2ccccc12)NC(=O)[C@H](CCCN=C(N)N)NC(=O)[C@H](CCCN=C(N)N)NC(=O)[C@@H](N)CCCN=C(N)N)C(=O)O` [RRRWWWK], which MIC (Streptococcus mutans) is on record?
**A.** Its MIC is no less than 53.3 µM.

**Q.** How did the MIC [20] turn out when `CSCC[C@H](N)C(=O)N[C@@H](CC(C)C)C(=O)N[C@H](C(=O)N[C@@H](C)C(=O)N[C@@H](CCC(=O)O)C(=O)N[C@@H](CCC(=O)O)C(=O)N[C@@H](CCCCN)C(=O)N[C@@H](C)C(=O)N[C@@H](C)C(=O)N[C@H](C(=O)N[C@H](C(=O)N[C@@H](C)C(=O)N[C@@H](Cc1ccccc1)C(=O)O)[C@@H](C)O)C(C)C)[C@@H](C)O` [MLTAEEKAAVTAF] was run?
**A.** Its MIC is 6 µM (≈ 8.29 µg/mL).

**Q.** And the MIC (Listeria innocua)?
**A.** Its MIC is 6 µM (≈ 8.29 µg/mL).

**Q.** And the MIC (Micrococcus luteus A270)?
**A.** Its MIC is 4 µM (≈ 5.53 µg/mL).

**Q.** What about the MIC (Escherichia coli) of the same compound?
**A.** Its MIC is 4 µM (≈ 5.53 µg/mL).
